Reference: ChEMBL document CHEMBL1131824, “3-Alkyl-(5,5'-diphenyl)imidazolidineiones as new cannabinoid receptor ligands” (Bioorg Med Chem Lett, 1999)
Activity calls are given as the source filed them. The calls are words filed in the database; no cut-off is given here.

Assays:
Cannabinoid receptor 1 [1] = molecular target: T1, Cannabinoid receptor 1 (Homo sapiens, UniProt P21554); test: Displacement of [3H]-SR- 141716A binding to human CB1 receptor expressed in CHO cell membranes at the concentration of 10 uM
T1 sequence (P21554 whole entry): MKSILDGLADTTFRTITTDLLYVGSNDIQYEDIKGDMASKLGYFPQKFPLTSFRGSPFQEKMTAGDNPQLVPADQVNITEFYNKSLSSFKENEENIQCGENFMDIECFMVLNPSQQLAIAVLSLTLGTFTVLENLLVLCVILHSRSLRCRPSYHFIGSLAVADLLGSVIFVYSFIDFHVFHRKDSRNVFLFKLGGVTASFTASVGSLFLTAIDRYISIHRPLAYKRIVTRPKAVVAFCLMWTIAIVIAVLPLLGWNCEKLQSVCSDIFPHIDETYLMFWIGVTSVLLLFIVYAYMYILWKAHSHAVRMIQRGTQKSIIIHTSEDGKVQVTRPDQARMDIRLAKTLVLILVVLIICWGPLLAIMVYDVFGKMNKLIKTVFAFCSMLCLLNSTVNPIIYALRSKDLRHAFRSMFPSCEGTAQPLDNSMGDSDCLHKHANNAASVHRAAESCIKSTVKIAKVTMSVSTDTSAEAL

Cannabinoid receptor 1 [2] = molecular target: T1, Cannabinoid receptor 1; test: Displacement of [3H]-SR- 141716A binding to human CB1 receptor expressed in CHO cell membranes at the concentration of 1 uM
Cannabinoid receptor 1 [3] = molecular target: T1, Cannabinoid receptor 1; test: Ability to displace [3H]-SR- 141716A binding to CB1 receptor expressed in CHO cell membrane; assay type: cell membranes
Cannabinoid receptor 1 [4] = molecular target: T1, Cannabinoid receptor 1; test: Displacement of [3H]-SR- 141716A binding to human CB1 receptor expressed in CHO cell membranes at the concentration of 10 uM; Not significant
Cannabinoid receptor 1 [5] = molecular target: T1, Cannabinoid receptor 1; test: biochemical; assay type: cell-based, CHO
Cannabinoid receptor 1 [6] = molecular target: T1, Cannabinoid receptor 1; test: Binding affinity for brain CBI receptor was determined

In the case of `CCCCCCN1C(=O)NC(c2ccc(OC)cc2)(c2ccc(OC)cc2)C1=O`, the Displacement (Cannabinoid receptor 1 [1]) is reported as 66.6% and the Displacement (Cannabinoid receptor 1 [2]) is reported as 23%.
Work on `CCCCN1C(=O)NC(c2ccccc2)(c2ccccc2)C1=O` yielded a Displacement (Cannabinoid receptor 1 [1]) of 25.1%.
Work on `O=C1NC(c2ccc(Br)cc2)(c2ccc(Br)cc2)C(=O)N1CCN1CCOCC1` yielded a Ki (Cannabinoid receptor 1 [3]) of 70.3 nM, a Displacement (Cannabinoid receptor 1 [1]) of 91.2% and a Displacement (Cannabinoid receptor 1 [2]) of 54.1%.
In the case of `CCCCCCN1C(=O)NC(c2ccccc2)(c2ccccc2)C1=O`, the Displacement (Cannabinoid receptor 1 [1]) is reported as 35.6%.
With `O=C1NC(c2ccc(F)cc2)(c2ccc(F)cc2)C(=O)N1CCN1CCOCC1` the Displacement (Cannabinoid receptor 1 [1]) was 30.3%.
`CCCCCCCCN1C(=O)NC(c2ccc(Br)cc2)(c2ccc(Br)cc2)C1=O` gave a Displacement (Cannabinoid receptor 1 [1]) of 80% and a Displacement (Cannabinoid receptor 1 [2]) of 48.2%.
`CCCCCCCN1C(=O)NC(c2ccc(C)cc2)(c2ccc(C)cc2)C1=O` was tested, and the Displacement (Cannabinoid receptor 1 [1]) was 51.3%.
`CCCCCCCN1C(=O)NC(c2ccc(F)cc2)(c2ccc(F)cc2)C1=O` was tested, and the Displacement (Cannabinoid receptor 1 [1]) was 51.4%.
In the case of `O=C1NC(c2ccc(Br)cc2)(c2ccc(Br)cc2)C(=O)N1CCCO`, the Ki (Cannabinoid receptor 1 [3]) is reported as 103 nM, the Displacement (Cannabinoid receptor 1 [1]) is reported as 88.4% and the Displacement (Cannabinoid receptor 1 [2]) is reported as 50.2%.
`CCCCCCN1C(=O)NC(c2ccc(C)cc2)(c2ccc(C)cc2)C1=O` was tested, and the Displacement (Cannabinoid receptor 1 [1]) was 46.8%.
`CCCCCCCN1C(=O)NC(c2ccc(Br)cc2)(c2ccc(Br)cc2)C1=O` was tested, and the Ki (Cannabinoid receptor 1 [3]) was 97.9 nM, the Displacement (Cannabinoid receptor 1 [1]) was 89.2% and the Displacement (Cannabinoid receptor 1 [2]) was 51.5%.
In the case of `O=C1NC(=O)C(c2ccccc2)(c2ccccc2)N1`, the Displacement (Cannabinoid receptor 1 [4]) is reported as “inactive”.
In the case of `CCCCCCC(C)(C)c1cc(O)c2c(c1)OC(C)(C)[C@@H]1CCC(CO)C[C@@H]21` (stereo partly specified), the Ki (Cannabinoid receptor 1 [5]) is reported as 0.82 nM.
With `O=C1NC(c2ccccc2)(c2ccccc2)C(=O)N1CCN1CCCCC1` the Displacement (Cannabinoid receptor 1 [1]) was less than 15%.
With `O=C1NC(=O)C(c2ccc(Br)cc2)(c2ccc(Br)cc2)N1` the Displacement (Cannabinoid receptor 1 [4]) was “inactive”.
`CCCN1C(=O)NC(c2ccccc2)(c2ccccc2)C1=O` gave a Displacement (Cannabinoid receptor 1 [1]) of less than 20%.
For `CCCCCCCCN1C(=O)NC(c2ccccc2)(c2ccccc2)C1=O`, the Displacement (Cannabinoid receptor 1 [1]) was 61.2%.
`Cc1ccc(C2(c3ccc(C)cc3)NC(=O)NC2=O)cc1` was tested, and the Displacement (Cannabinoid receptor 1 [4]) was “inactive”.
In the case of `CCCCCN1C(=O)NC(c2ccccc2)(c2ccccc2)C1=O`, the Displacement (Cannabinoid receptor 1 [1]) is reported as 35.4%.
Molecule `COc1ccc(C2(c3ccc(OC)cc3)NC(=O)N(CCN3CCOCC3)C2=O)cc1` has a Displacement (Cannabinoid receptor 1 [1]) of 21.7%.
`O=C1NC(c2ccccc2)(c2ccccc2)C(=O)N1C1CC1` gave a Displacement (Cannabinoid receptor 1 [1]) of less than 5%.
For `COc1ccc(C2(c3ccc(OC)cc3)NC(=O)NC2=O)cc1`, the Displacement (Cannabinoid receptor 1 [4]) was “inactive”.
Molecule `CN(C)CCN1C(=O)NC(c2ccccc2)(c2ccccc2)C1=O` has a Displacement (Cannabinoid receptor 1 [1]) of less than 5%.
In the case of `Cc1ccc(C2(c3ccc(C)cc3)NC(=O)N(CCN3CCOCC3)C2=O)cc1`, the Displacement (Cannabinoid receptor 1 [1]) is reported as 23.9%.
`O=C1NC(c2ccccc2)(c2ccccc2)C(=O)N1Cc1ccccc1` gave a Displacement (Cannabinoid receptor 1 [1]) of 40.6%.
In the case of `CCCCCCN1C(=O)NC(c2ccc(F)cc2)(c2ccc(F)cc2)C1=O`, the Displacement (Cannabinoid receptor 1 [1]) is reported as 40.6%.
With `O=C1NC(=O)C(c2ccc(F)cc2)(c2ccc(F)cc2)N1` the Displacement (Cannabinoid receptor 1 [4]) was “inactive”.
`CCCCCn1ccc(C(=O)c2cccc3ccccc23)c1` was tested, and the Ki (Cannabinoid receptor 1 [6]) was 87 nM.
Work on `CCCCCCCCN1C(=O)NC(c2ccc(F)cc2)(c2ccc(F)cc2)C1=O` yielded a Displacement (Cannabinoid receptor 1 [1]) of 62.5% and a Displacement (Cannabinoid receptor 1 [2]) of 15.3%.
`O=C1NC(c2ccccc2)(c2ccccc2)C(=O)N1CCN1CCOCC1` was tested, and the Displacement (Cannabinoid receptor 1 [1]) was less than 5%.
With `CCCCCCN1C(=O)NC(c2ccc(Br)cc2)(c2ccc(Br)cc2)C1=O` the Displacement (Cannabinoid receptor 1 [1]) was 72.1% and the Displacement (Cannabinoid receptor 1 [2]) was 30.2%.
